Assay results reported in paper PMC3680066 (BMC Microbiology, 2013).

Biological target: leucine aminopeptidase (LAP), pepA (Burkholderia pseudomallei, UniProt Q63WC3)
Experiment: biochemical
Settings: read-out: Relative activity (%)

Chain of leucine aminopeptidase (LAP), pepA (Q63WC3 whole entry, looked up): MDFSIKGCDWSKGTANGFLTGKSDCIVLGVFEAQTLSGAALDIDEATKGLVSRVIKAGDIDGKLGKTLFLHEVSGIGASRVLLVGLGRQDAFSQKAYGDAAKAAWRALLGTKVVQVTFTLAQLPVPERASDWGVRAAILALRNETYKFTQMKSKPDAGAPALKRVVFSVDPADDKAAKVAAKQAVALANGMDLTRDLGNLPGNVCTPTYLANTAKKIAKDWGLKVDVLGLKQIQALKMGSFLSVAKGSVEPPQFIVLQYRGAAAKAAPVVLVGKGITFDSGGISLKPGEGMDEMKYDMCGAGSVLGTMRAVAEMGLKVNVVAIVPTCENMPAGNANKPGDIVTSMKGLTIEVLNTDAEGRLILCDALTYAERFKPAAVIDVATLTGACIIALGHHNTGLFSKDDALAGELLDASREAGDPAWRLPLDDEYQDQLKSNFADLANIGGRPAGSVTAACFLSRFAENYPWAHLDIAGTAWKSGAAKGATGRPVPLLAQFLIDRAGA

CC(C)C[C@@H](N)[C@H](O)C(=O)N[C@H](C(=O)N[C@H](C(=O)N[C@@H](CC(=O)O)C(=O)O)C(C)C)C(C)C [amastatin]
activity at 2000 µM: 0%
